Measured values from PMC6207618, “The GbsR Family of Transcriptional Regulators: Functional Characterization of the OpuAR Repressor” (Frontiers in Microbiology, 2018).
“Also recorded” adds a separate entry of the source. Where two headings read alike, the source gives them in different places.

Key:
[1] = system: opuAA-treA reporter activity; test: opuAA-treA reporter fusion TreA enzyme activity assay; format: cell-based, Bacillus subtilis; conditions: strain STHB10 (OpuAR+), SMM with 1.2 M NaCl, 1 mM compatible solute
Text: opuAAB.infantis′-treA reporter gene fusions were constructed using primers opuAR treA Frag1/2 rev and either opuAR treA Frag1/4 for (Supplementary Table S2) to amplify a 1940-bp DNA fragment from chromosomal DNA of B. infantis NRRL B-14911, including the predicted opuA promoter region and the coding region of opuAR, or primer opuAR treA Frag2 for, to generate a fragment lacking the opuAR gene. PCR products, which had been cut with BamHI and SmaI, were cloned into the vector pJMB1 ([Hoffmann et al., 2013]). This vector carries a promoterless treA gene, whose gene product [phospho-α-(1,1)-glucosidase] can be assayed and photometrically quantitated with the chromogenic substrate α-PNPG ([Gotsche and Dahl, 1995]). The plasmids resulting for the construction of the treA transcriptional reporter gene fusions were named pSTH33 (opuAR^+/opuAAB.i-treA) and pSTH34 (opuAR^-/opuAAB.i-treA) (Supplementary Table S3). All treA reporter gene fusions were stably integrated as a single copy into the chromosome of various B. subtilis strains at the amyE gene; all of these strains carry a gene disruption mutation of the native chromosomal treA gene of B. subtilis to allow the assignment of the measured TreA enzyme activity to the reporter gene constructs (Supplementary Table S1).
Aliquots (1.5 ml) from cultures of B. subtilis strains carrying chromosomal opuAAB.i′-treA reporter operon gene fusions (Supplementary Table S1) were used to monitor the expression levels by assaying the TreA reporter enzyme activity as described previously using the chromogenic substrate α-PNPG ([Gotsche and Dahl, 1995]). The TreA-specific activity is expressed in units per milligram of protein. Protein concentrations were estimated from the optical density of the cell culture harboring the treA reporter operon gene fusion ([Miller, 1972]).
FIGURE 6 Influence of the B. subtilis GbsR-like regulators on the expression of opuA from B. infantis and its transcriptional response to the presence of compatible solutes. (A) Genetic structure of the opuAA-treA transcriptional reporter fusions. (B) The opuAA-treA reporter gene fusions, either including or lacking the B. infantis opuAR gene, were integrated into the chromosome of the B. subtilis strain STHB05; it carries gene disruption mutations of all three GbsR-like regulators, resulting in strains STHB10 (OpuAR^+) and STHB11 (OpuAR^-). […] The opuAA-treA reporter strains were grown in SMM to early exponential growth phase (OD578 1–1.5) and then assayed for TreA reporter enzyme activity. The shown data represent four independent biological replicates and each culture was assayed twice. (C) Strain STHB10 (opuAR^+/opuAA-treA) was grown in SMM with increasing NaCl concentrations until each of these cultures reached mid-exponential growth phase (OD578 of about 1.5) and were then harvested for TreA reporter enzyme activity assays. The given data are the means and standard deviations of four independent biological replicates and each culture was assayed twice. (D) Expression of the opuAA-treA reporter gene construct in response to extracellular provided compatible solutes. The opuAA-treA reporter fusion strains STHB10 (OpuAR^+) and STHB11 (OpuAR^-) were cultivated in SMM containing 1.2 M NaCl either in the absence or presence of 1 mM of the indicated compatible solutes. The opuAA-treA reporter fusion strains were grown to early exponential growth phase (OD578 1–1.5) and then assayed for TreA reporter enzyme activity. The given data are the means and standard deviations of four independent biological replicates and each culture was assayed twice.
To identify possible effector molecules for the B. infantis OpuAR protein, we conducted a series of in vivo experiments in which we assessed any possible inducing effects of compatible solutes on opuAA-treA transcriptional activity in an OpuAR-dependent fashion (Figure 6D).

[2] = target: B. subtilis GbsR protein; design: method as in Nau-Wagner et al., 2012; conditions: purified B. subtilis GbsR, ref Nau-Wagner et al., 2012, cited from earlier work
[3] = target: OpuAR (Bacillus infantis, UniProt U5LJR5); test: Intrinsic tryptophan fluorescence ligand binding, purified OpuAR (wild type)
Method: Overproduction of the OpuAR repressor protein and its mutant derivatives was carried out in the E. coli B strain BL21 harboring plasmid pMP_AR1, a derivative of the expression vector pASK-IBA3plus (IBA, Göttingen, Germany) (Supplementary Table S3). […] De-repression of P-tet promoter activity is achieved by adding the synthetic inducer AHT to the growth medium. Cultures of the E. coli B. strain BL21 (pMP_AR1) were inoculated (to a OD578 of 0.1) from pre-cultures prepared in MMA ([Miller, 1972]) supplemented with 0.5% glucose (wt/vol) as the carbon source, 0.5% casamino acids (wt/vol), 1 mg l^-1 thiamine, and 1 mM MgSO4. The cultures also contained ampicillin (100 μg ml^-1) to select for the presence of plasmid pMP_AR1 (or its mutant derivatives) and they were grown at 37°C. When the main cultures reached an OD578 of 0.5, enhanced expression of the opuAR gene from P-tet was induced by the addition of AHT to a final concentration of 0.2-μg ml^-1. Cells were grown for an additional 2 h, before they were harvested by centrifugation (at 4°C at 4,800 × g for 20 min). […]
The dissociation constants of OpuAR for choline and glycine betaine were determined by intrinsic tryptophan fluorescence spectroscopy as described previously using a Carry Eclips fluorescence spectrometer (Varian, Surry, United Kingdom) ([Pittelkow et al., 2011]; [Nau-Wagner et al., 2012]).

Chain of OpuAR (U5LJR5 entry or part of it): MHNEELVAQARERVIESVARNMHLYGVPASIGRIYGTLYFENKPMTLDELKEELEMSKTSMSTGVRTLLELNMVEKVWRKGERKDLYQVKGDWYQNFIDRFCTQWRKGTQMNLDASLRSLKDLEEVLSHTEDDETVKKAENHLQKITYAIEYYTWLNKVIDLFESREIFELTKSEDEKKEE

Compound | Induction of opuAA-treA reporter activity (OpuAR-dependent) [1] | also measured
CN(C)CC(=O)O [DMG, dimethlyglycine] | did not serve as inducers | 
C[S+](C)CCC(=O)[O-] [DMSP, dimethylsulfoniopropionate] | did not serve as inducers | 
C[N+](C)(C)CCO [choline] | served as inducers; also recorded: induced | Kd ([2]; intrinsic Trp-fluorescence): 165 ± 15 µM; Kd [3]: 193 ± 40 µM
C[N+](C)(C)CC(=O)[O-] [glycine betaine] | served as inducers; also recorded: induced | Binding by GbsR [2]: does not bind; Kd ([3]; purified OpuAR-Strep-tag II wild type, 5 μM protein, read-out: Kd): 301 ± 24 µM
C[N+](C)(C)CCC(=O)[O-] [homobetaine] | did not serve as inducers | 
C[N+]1(C)CCC[C@H]1C(=O)[O-] [proline betaine] | served as inducers; also recorded: induced | 
